Columns and labels:
Type in all cases: in vivo, human
bilateral hip arthritis = assay: Treatment of bilateral hip arthritis with a CMO compound and doxycycline (case report)
Procedure: Doxycycline therapy was used for treatment of a middle aged person suffering from bilateral hip arthritis and experiencing severe pain despite increasing doses of NSAIDs. […] Cox-2 inhibitors were substituted for the NSAID agents with better results. However, over time, it was necessary to increase the doses of both agents to two to three times the initial dose in order to maintain adequate symptomatic relief. […] A CMO compound was added and the dosage of the other agents decreased to initial levels. […] The Cox-2 agent was discontinued with no increase in severity of symptoms.

knee arthritis = assay: Treatment of knee arthritis with a CMO compound and a tetracycline compound (case report)
Procedure: NSAID therapy was halted and tetracycline therapy was added.

[1] = tested on: ankle and knee arthritis pain; assay: Treatment of ankle and knee arthritis with a CMO compound and doxycycline (case report)
bee sting = assay: Relief of venom induced inflammation, topical treatment of bee stings (case report); details: bee sting on one arm of the same individual
Procedure: Different bee stings on the same individual were treated by two different methods. A bee sting on one arm was treated with papain with mild relief from pain and swelling. A second bee sting on the other arm was treated with papain, a eutectic mixture of local anaesthetics (EMLA®) and a topical steroid (Kenalog). […] The improved relief from pain was apparent even after all other sensation had returned to normal in the area which received the EMLA® treatment.

[2] = dosage of doxycycline and Cox-2 agent decreased to initial levels

Molecule: C[C@H]1c2cccc(O)c2C(=O)C2=C(O)[C@]3(O)C(=O)C(C(N)=O)=C(O)[C@@H](N(C)C)[C@@H]3[C@@H](O)[C@@H]21 [doxycycline, reference compound]
- side effects at two to three times the initial dose of both agents (bilateral hip arthritis; doxycycline with Cox-2 inhibitor): dizziness, nausea and abdominal pain
- side effect, doxycycline added to NSAIDs (bilateral hip arthritis; middle aged person): gastrointestinal upset was problematic

Molecule: CCCC/C=C\CCCCCCCC(=O)OCCCCCCCCCCCCCCCC [CMO, cetyl myristoleate]
- symptoms when the agent was discontinued (knee arthritis; despite increase in dose of the remaining agent): symptoms worsened
- symptomatic relief of knee arthritis (knee arthritis; middle-aged, one patient): did not respond well
- side effects after a CMO compound was added (bilateral hip arthritis; [2]): side effects disappeared
- symptomatic relief after a CMO compound was added (bilateral hip arthritis; [2]): improved symptomatic relief
- symptoms when the agent was discontinued (bilateral hip arthritis; patient on CMO compound and doxycycline): worsening symptomatology
- symptoms when the agent was discontinued ([1]; combination of CMO compound and doxycycline): Symptoms returned
- relief of ankle and knee arthritis pain ([1]; female senior citizen, CMO therapy alone): no or minimal relief

B1: papain (protein, UniProt P00784 134-345, looked up)
Papain: IPEYVDWRQKGAVTPVKNQGSCGSCWAFSAVVTIEGIIKIRTGNLNEYSEQELLDCDRRSYGCNGGYPWSALQLVAQYGIHYRNTYPYEGVQRYCRSREKGPYAAKTDGVRQVQPYNEGALLYSIANQPVSVVLEAAGKDFQLYRGGIFVGPCGNKVDHAVAAVGYGPNYILIKNSWGTGWGENGYIRIKRGTGNSYGVCGLYTSSFYPVKN
notes: proteolytic enzyme applied topically
- relief from pain (bee sting): mild relief
- swelling (bee sting): mild relief
